Test results from PubChem BioAssay AID256 (DTP/NCI, 2004).
Toxic doses and inconclusive results are not listed. Rule for the calls: active = survival T/C of 150% or more; inactive = T/C below 125% in these data.

Test system: CD2F1 mice, L1210 leukemia ip, survival T/C
Assay: NCI In Vivo Anticancer Drug Screen. Data for tumor model L1210 Leukemia (intraperitoneal) in CD2F1 (CDF1) mice
Conditions: higher = longer survival
How it was run: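 Transplantable tumor in mice; compound-treated vs vehicle-treated groups. Read-out = treated/control ratio of the measured endpoint.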

[1] = endpoint: mean survival time, dose: 50.0 mg/kg/injection, schedule: Q01DX009 (ip), vehicle: saline with Tween-80
[2] = endpoint: mean survival time, dose: 100.0 mg/kg/injection, schedule: Q01DX009 (ip), vehicle: saline with Tween-80
[3] = endpoint: mean survival time, dose: 100.0 mg/kg/injection, schedule: Q04DX003 (ip), vehicle: saline with Tween-80
[4] = endpoint: mean survival time, dose: 200.0 mg/kg/injection, schedule: Q04DX003 (ip), vehicle: saline with Tween-80
[5] = endpoint: mean survival time, dose: 100.0 mg/kg/injection, schedule: Q01DX001 (ip), vehicle: saline with Tween-80
[6] = endpoint: mean survival time, dose: 200.0 mg/kg/injection, schedule: Q01DX001 (ip), vehicle: saline with Tween-80
[7] = endpoint: mean survival time, dose: 100.0 mg/kg/injection, schedule: Q01DX001 (ip), vehicle: saline
[8] = endpoint: mean survival time, dose: 200.0 mg/kg/injection, schedule: Q01DX001 (ip), vehicle: saline
[9] = endpoint: mean survival time, dose: 25.0 mg/kg/injection, schedule: Q04DX002 (ip), vehicle: saline with Tween-80
[10] = endpoint: mean survival time, dose: 50.0 mg/kg/injection, schedule: Q04DX002 (ip), vehicle: saline with Tween-80
[11] = endpoint: mean survival time, dose: 100.0 mg/kg/injection, schedule: Q04DX002 (ip), vehicle: saline with Tween-80
[12] = endpoint: mean survival time, dose: 200.0 mg/kg/injection, schedule: Q01DX009 (ip), vehicle: saline with Tween-80
[13] = endpoint: mean survival time, dose: 400.0 mg/kg/injection, schedule: Q01DX009 (ip), vehicle: saline with Tween-80
[14] = endpoint: mean survival time, dose: 400.0 mg/kg/injection, schedule: Q04DX003 (ip), vehicle: saline with Tween-80

Measured: T/C

N#CC(NCc1ccccc1)c1ccc2c(c1)OCO2 (centres undefined)
inactive: [1] 98 % of control | [2] 90 % of control | [3] 99 % of control | [4] 108 % of control

O=C(O)Cc1cccnc1
inactive: endpoint: mean survival time, dose: 100.0 mg/kg/injection, schedule: Q01DX009 (ip), vehicle: saline 98 % of control | endpoint: mean survival time, dose: 200.0 mg/kg/injection, schedule: Q01DX009 (ip), vehicle: saline 102 % of control | endpoint: mean survival time, dose: 400.0 mg/kg/injection, schedule: Q01DX009 (ip), vehicle: saline 110 % of control

SCc1nc2ccccc2[nH]1
inactive: [5] 96 % of control | [6] 97 % of control

CSC(=C[N+](=O)[O-])SC
inactive: endpoint: mean survival time, dose: 25.0 mg/kg/injection, schedule: Q01DX009 (ip), vehicle: Klucel (hydroxypropylcellulose) (HPC) 97 % of control | endpoint: mean survival time, dose: 50.0 mg/kg/injection, schedule: Q01DX009 (ip), vehicle: Klucel (hydroxypropylcellulose) (HPC) 106 % of control

CN(C=O)NC(=O)Nc1ccccc1
inactive: endpoint: mean survival time, dose: 75.0 mg/kg/injection, schedule: Q01DX001 (ip), vehicle: saline 100 % of control | endpoint: mean survival time, dose: 150.0 mg/kg/injection, schedule: Q01DX001 (ip), vehicle: saline 100 % of control | endpoint: mean survival time, dose: 300.0 mg/kg/injection, schedule: Q01DX001 (ip), vehicle: saline 102 % of control

c1ccc(C2CO2)cc1 (centres undefined)
inactive: endpoint: mean survival time, dose: 150.0 mg/kg/injection, schedule: Q04DX003 (ip), vehicle: Klucel (hydroxypropylcellulose) (HPC) 102 % of control | endpoint: mean survival time, dose: 225.0 mg/kg/injection, schedule: Q04DX003 (ip), vehicle: Klucel (hydroxypropylcellulose) (HPC) 102 % of control

CC(C)C(C)/C=C\C(C)C1CCC2C3=CCC4CC(=O)CCC4(C)C3CCC21C (centres undefined)
inactive: endpoint: mean survival time, dose: 25.0 mg/kg/injection, schedule: Q01DX001 (ip), vehicle: Klucel (hydroxypropylcellulose) (HPC) 103 % of control | endpoint: mean survival time, dose: 50.0 mg/kg/injection, schedule: Q01DX001 (ip), vehicle: Klucel (hydroxypropylcellulose) (HPC) 96 % of control | endpoint: mean survival time, dose: 100.0 mg/kg/injection, schedule: Q01DX001 (ip), vehicle: Klucel (hydroxypropylcellulose) (HPC) 103 % of control

CCC(=O)C(=O)c1ccccc1
inactive: [7] 101 % of control | [8] 98 % of control | endpoint: mean survival time, dose: 400.0 mg/kg/injection, schedule: Q01DX001 (ip), vehicle: saline 101 % of control

C(=NCC1CCC(CN=Cc2ccco2)CC1)c1ccco1 (centres undefined)
inactive: [5] 107 % of control | [6] 101 % of control | endpoint: mean survival time, dose: 400.0 mg/kg/injection, schedule: Q01DX001 (ip), vehicle: saline with Tween-80 101 % of control

CC(C)P(=O)(CC(=O)O)c1ccccc1 (centres undefined)
inactive: [9] 107 % of control | [10] 96 % of control | [11] 100 % of control

S=c1[nH]ccn1-c1cccc(Br)c1
inactive: [2] 112 % of control | [12] 103 % of control | [13] 112 % of control

O=S(=O)(OCCCCCCOS(=O)(=O)c1cccnc1)c1cccnc1
inactive: endpoint: mean survival time, dose: 10.0 mg/kg/injection, schedule: Q04DX002 (ip), vehicle: saline with Tween-80 107 % of control

[O-][n+]1cc(-c2ccccc2)cc2ccccc21
inactive: endpoint: mean survival time, dose: 50.0 mg/kg/injection, schedule: Q04DX003 (ip), vehicle: saline with Tween-80 97 % of control | [3] 97 % of control

CC(=O)Nc1ccc([N+](=O)[O-])cc1
inactive: [2] 96 % of control | [3] 90 % of control | [12] 101 % of control | [4] 98 % of control | [13] 111 % of control | [14] 98 % of control

Cc1ccc(-n2nc(C3OCC(O)C3O)c3nc4cc(C)c(C)cc4nc32)cc1 (centres undefined)
inactive: endpoint: median survival time, dose: 10.0 mg/kg/injection, schedule: Q01DX005 (ip), vehicle: distilled water + Tween-80 98 % of control | endpoint: median survival time, dose: 20.0 mg/kg/injection, schedule: Q01DX005 (ip), vehicle: distilled water + Tween-80 97 % of control | endpoint: median survival time, dose: 40.0 mg/kg/injection, schedule: Q01DX005 (ip), vehicle: distilled water + Tween-80 103 % of control | endpoint: median survival time, dose: 80.0 mg/kg/injection, schedule: Q01DX005 (ip), vehicle: distilled water + Tween-80 97 % of control | endpoint: median survival time, dose: 160.0 mg/kg/injection, schedule: Q01DX005 (ip), vehicle: distilled water + Tween-80 98 % of control

COc1ncn(C2CC(OC(=O)c3ccc(C)cc3)C(COC(=O)c3ccc(C)cc3)O2)c(=O)n1 (centres undefined)
inactive: [4] 86 % of control

CSc1nc(C)cc(Cl)n1
inactive: [1] 94 % of control | [2] 92 % of control | [3] 103 % of control | [12] 95 % of control | [4] 97 % of control

Cc1ccc(CNc2ccc(C)c(Cl)c2)cc1
inactive: endpoint: mean survival time, dose: 100.0 mg/kg/injection, schedule: Q04DX003 (ip), vehicle: other 101 % of control | endpoint: mean survival time, dose: 200.0 mg/kg/injection, schedule: Q04DX003 (ip), vehicle: other 97 % of control | endpoint: mean survival time, dose: 400.0 mg/kg/injection, schedule: Q04DX003 (ip), vehicle: other 96 % of control

[Cl][Pt+2][Cl].[NH-]CC1([NH-])CCCCC1
inactive: endpoint: mean survival time, dose: 0.19 mg/kg/injection, schedule: Q04DX003 (ip), vehicle: saline with Tween-80 107 % of control | endpoint: mean survival time, dose: 0.39 mg/kg/injection, schedule: Q04DX003 (ip), vehicle: saline with Tween-80 107 % of control | endpoint: mean survival time, dose: 0.79 mg/kg/injection, schedule: Q04DX003 (ip), vehicle: saline with Tween-80 113 % of control | endpoint: mean survival time, dose: 1.56 mg/kg/injection, schedule: Q04DX003 (ip), vehicle: saline with Tween-80 114 % of control
active: endpoint: mean survival time, dose: 3.13 mg/kg/injection, schedule: Q04DX003 (ip), vehicle: saline 202 % of control | endpoint: mean survival time, dose: 6.25 mg/kg/injection, schedule: Q04DX003 (ip), vehicle: saline 184 % of control | endpoint: mean survival time, dose: 12.5 mg/kg/injection, schedule: Q04DX003 (ip), vehicle: saline with Tween-80 244 % of control

O=C(O)c1cc(=O)c2ccccc2[nH]1
inactive: endpoint: mean survival time, dose: 50.0 mg/kg/injection, schedule: Q01DX001 (ip), vehicle: saline 93 % of control | [7] 93 % of control | [8] 91 % of control

CC(=O)[O][Hg][CH]1CCCCC1O (centres undefined)
inactive: endpoint: mean survival time, dose: 3.13 mg/kg/injection, schedule: Q01DX009 (ip), vehicle: saline + alcohol 98 % of control | endpoint: mean survival time, dose: 6.25 mg/kg/injection, schedule: Q01DX009 (ip), vehicle: saline + alcohol 108 % of control

CC(COCc1ccccc1)COP(N)(=O)N(CCCl)CCCl (centres undefined)
inactive: endpoint: mean survival time, dose: 15.62 mg/kg/injection, schedule: Q01DX001 (ip), vehicle: DMSO 97 % of control | endpoint: mean survival time, dose: 31.3 mg/kg/injection, schedule: Q01DX001 (ip), vehicle: DMSO 98 % of control | endpoint: mean survival time, dose: 62.5 mg/kg/injection, schedule: Q01DX001 (ip), vehicle: DMSO 101 % of control | endpoint: mean survival time, dose: 125.0 mg/kg/injection, schedule: Q01DX001 (ip), vehicle: DMSO 111 % of control | endpoint: mean survival time, dose: 250.0 mg/kg/injection, schedule: Q01DX001 (ip), vehicle: DMSO 103 % of control | endpoint: mean survival time, dose: 500.0 mg/kg/injection, schedule: Q01DX001 (ip), vehicle: DMSO 101 % of control

NC(=O)/C=C1\NC(=O)CS1
inactive: endpoint: mean survival time, dose: 100.0 mg/kg/injection, schedule: Q01DX009 (ip), vehicle: saline sonified 97 % of control | [3] 100 % of control | endpoint: mean survival time, dose: 200.0 mg/kg/injection, schedule: Q01DX009 (ip), vehicle: saline sonified 103 % of control | [4] 91 % of control | endpoint: mean survival time, dose: 400.0 mg/kg/injection, schedule: Q01DX009 (ip), vehicle: saline sonified 88 % of control | [14] 102 % of control

Nc1ccccc1Sc1ccc2c3c(cccc13)C(=O)N(c1ccccc1)C2=O
inactive: [9] 95 % of control | [10] 98 % of control | [11] 87 % of control

CCOC(=O)CCC(NC(=O)c1ccc(N(C)S(=O)(=O)c2ccc(C)cc2)c(Cl)c1Cl)C(=O)OCC (centres undefined)
inactive: [3] 105 % of control | [4] 91 % of control | [14] 94 % of control

NC1=NC2OC(CO)C(O)C2O1 (centres undefined)
inactive: [2] 105 % of control | [12] 100 % of control | [13] 102 % of control | endpoint: median survival time, dose: 100.0 mg/kg/injection, schedule: Q04DX003 (ip), vehicle: saline with Tween-80 100 % of control | endpoint: median survival time, dose: 200.0 mg/kg/injection, schedule: Q04DX003 (ip), vehicle: saline with Tween-80 100 % of control | endpoint: median survival time, dose: 400.0 mg/kg/injection, schedule: Q04DX003 (ip), vehicle: saline with Tween-80 100 % of control

O=C(OCC(O)C(O)C(O)C(O)COC(=O)c1ccccc1)c1ccccc1 (centres undefined) (tested in a mixture with another compound)
inactive: [1] 98 % of control | [2] 110 % of control | [12] 98 % of control

COc1ccc(F)c(NC(=O)/C=N/O)c1
inactive: [3] 102 % of control | [4] 102 % of control | [14] 100 % of control

Brc1cscc1-c1ccccc1
inactive: [3] 93 % of control | [4] 102 % of control | [14] 98 % of control
